In publication PMC2912373, “Low-Density Lipoprotein Receptor-Related Protein 1 (LRP1) Mediates Neuronal Aβ42 Uptake and Lysosomal Trafficking” (PLoS ONE, 2010):

Experiments:
N2a-mLRP4 cells = test: Co-localization of internalized FAM-Aβ42 with LysoTracker, confocal microscopy; type: cell-based, mouse
Procedure: To determine whether internalized Aβ42 is accumulated over time, we performed continuous feeding experiments of FAM-Aβ42 in N2a-pcDNA3 and N2a-mLRP4 cells. The steady-state levels and localization of Aβ42 were determined by flow cytometry and confocal microscopy, respectively (Fig. 2). Cells were incubated with 500 nM FAM-Aβ42 at 37°C for 24, 48 or 72 h and the content of fluorescence per cell was quantified by FACS and presented as a percentage of the levels in N2a-pcDNA3 at each time point (Fig. 2A). […] Therefore, we analyzed the subcellular localization of internalized FAM-Aβ42 by confocal microscopy in N2a cells treated as before and analyzed co-localization with lysosomes. For the visualization of acidic organelles, a brief incubation with LysoTracker Red at the end of the experiment was included (Fig. 2B). After 24 h of incubation, a small amount of cell-associated Aβ42 can be detected in N2a-mLRP4 cells.
Figure 2 Increased accumulation of intracellular Aβ42 within lysosomes in LRP1 minireceptor-expressing cells. A, increased Aβ42 accumulation in LRP1 minireceptor-expressing cells. N2a-mLRP4 and N2a-pcDNA3 cells were treated with 500 nM of FAM-Aβ42 at 37°C for 24, 48 and 72 h, and steady-state levels of intracellular Aβ42 were determined by flow cytometric analyses of pronase-treated cells as described in the Experimental Procedures. […] B, increased co-localization of intracellular Aβ42 and lysosomes in N2a-mLRP4 cells. N2a-pcDNA3 and N2a-mLRP4 cells were grown in glass chamber slides and treated with 500 nM of FAM-Aβ42 at 37°C for 24, 48 and 72 h. Lysosomes were labeled with LysoTracker 30 min before the end of each incubation. Cells were then fixed and analyzed by confocal microscopy.
For the imaging experiments, stable N2a cells were plated into an 8-well chambered coverglass at 16,250 cells/cm^2 with one independent chambered coverglass for each time point, and cells were grown overnight. […] Cells were then fixed and analyzed by a confocal laser scanning microscope (Fluoview 500, Olympus) using a 40x objective lens. […]

N2a-pcDNA3 cells = test: Binding/endocytosis of FAM-Aβ42, confocal microscopy; type: cell-based, mouse; details: 5 µM bound 1 h at 4°C, 37°C for 8 h
Excerpt: To test whether the endocytic activity of LRP1 mediates the uptake of Aβ42 and its accumulation within neurons, we analyzed the uptake of fluorescently labeled Aβ42 in control N2a cells and in N2a cells that overexpress a LRP1 minireceptor, mLRP4. This minireceptor contains the fourth ligand-binding domain of LRP1 and is capable of binding several LRP1 ligands with endocytic properties identical to the full-length LRP1 [35]. We generated stable N2a-mLRP4 and N2a-pcDNA3 cell lines and characterized them for total mLRP4 expression levels by Western blot and FACS (Fig. 1). […] To determine if mLRP4 reached the plasma membrane after synthesis, we analyzed cell surface levels of mLRP4 by FACS in non-permeabilized cells. […] To quantify the amount of internalized RAP, we performed FACS analysis of similarly treated cultures. […] Cells were then warmed to 37°C for different periods of time to allow ligand internalization, and analyzed by confocal microscopy as described in the Experimental Procedures section. […]
Figure 1 LRP1 minireceptor increases the uptake of Aβ42 in N2a-mLRP4 cells. A, cell lysates from N2a cells stably expressing LRP1 minireceptor (N2a-mLRP4) or empty pcDNA3 vector (N2a-pcDNA3) were analyzed by 7.5% SDS-PAGE and Western blotted with anti-HA or anti-LRP1 antibodies. […]

FAM-Aβ42: FAM-Aβ42 peptide (23526) from Anaspec; amyloid-β 42 with carboxyfluorescein at the N-terminal region
co-localization of intracellular accumulated Aβ42 with LysoTracker (N2a-mLRP4 cells; 500 nM FAM-Aβ42, 37°C, 24, 48 and 72 h, N2a-mLRP4, increased over time): highly co-localized with LysoTracker | localization of Aβ42 into LysoTracker-positive organelles (N2a-mLRP4 cells; 500 nM FAM-Aβ42, 37°C, 48 and 72 h, both N2a-pcDNA3 and N2a-mLRP4 cells): increased localization | localization of cell-associated FAM-Aβ42 into acidic organelles (LysoTracker) (N2a-mLRP4 cells; 500 nM FAM-Aβ42, 37°C, 24 h, 100 nM LysoTracker Red last 30 min, N2a-mLRP4): does not localize into acidic organelles | Aβ42 accumulated after 8 h of warming (N2a-pcDNA3 cells): small amount
